Results on 16 compounds are retold here after US10285989B2, “Pyrimidinone amide compounds as PDE2 inhibitors” (Merck Sharp & Dohme Corp., priority 2015, dated 2019).

The target of data set [1] is P-glycoprotein (P-gp, rat Mdr1a) (Rattus norvegicus, UniProt Q6PSM0). In words: P-gp transport, experimental BA/AB ratio, rat LLC-Mdr1a. Type of data set: in vitro ADME. The note with it: LLC-PK1; rat LLC-Mdrla; 1 μM substrate concentration. An excerpt: (§1) See Doan et al. “Passive permeability and P-glycoprotein-mediated efflux differentiate central nervous system (CNS) and non-CNS marketed drugs”, J. Pharm. Exper. […] Desirable human BA/AB ratio is less than 2.0. […] See, for example, Desai, et al. Integration of in Silico and in Vitro Tools for Scaffold Optimization during Drug Discovery: Predicting P-glycoprotein Efflux” Mol. Pharmac.
P-glycoprotein (P-gp, rat Mdr1a), sequence (Q6PSM0 1-1272): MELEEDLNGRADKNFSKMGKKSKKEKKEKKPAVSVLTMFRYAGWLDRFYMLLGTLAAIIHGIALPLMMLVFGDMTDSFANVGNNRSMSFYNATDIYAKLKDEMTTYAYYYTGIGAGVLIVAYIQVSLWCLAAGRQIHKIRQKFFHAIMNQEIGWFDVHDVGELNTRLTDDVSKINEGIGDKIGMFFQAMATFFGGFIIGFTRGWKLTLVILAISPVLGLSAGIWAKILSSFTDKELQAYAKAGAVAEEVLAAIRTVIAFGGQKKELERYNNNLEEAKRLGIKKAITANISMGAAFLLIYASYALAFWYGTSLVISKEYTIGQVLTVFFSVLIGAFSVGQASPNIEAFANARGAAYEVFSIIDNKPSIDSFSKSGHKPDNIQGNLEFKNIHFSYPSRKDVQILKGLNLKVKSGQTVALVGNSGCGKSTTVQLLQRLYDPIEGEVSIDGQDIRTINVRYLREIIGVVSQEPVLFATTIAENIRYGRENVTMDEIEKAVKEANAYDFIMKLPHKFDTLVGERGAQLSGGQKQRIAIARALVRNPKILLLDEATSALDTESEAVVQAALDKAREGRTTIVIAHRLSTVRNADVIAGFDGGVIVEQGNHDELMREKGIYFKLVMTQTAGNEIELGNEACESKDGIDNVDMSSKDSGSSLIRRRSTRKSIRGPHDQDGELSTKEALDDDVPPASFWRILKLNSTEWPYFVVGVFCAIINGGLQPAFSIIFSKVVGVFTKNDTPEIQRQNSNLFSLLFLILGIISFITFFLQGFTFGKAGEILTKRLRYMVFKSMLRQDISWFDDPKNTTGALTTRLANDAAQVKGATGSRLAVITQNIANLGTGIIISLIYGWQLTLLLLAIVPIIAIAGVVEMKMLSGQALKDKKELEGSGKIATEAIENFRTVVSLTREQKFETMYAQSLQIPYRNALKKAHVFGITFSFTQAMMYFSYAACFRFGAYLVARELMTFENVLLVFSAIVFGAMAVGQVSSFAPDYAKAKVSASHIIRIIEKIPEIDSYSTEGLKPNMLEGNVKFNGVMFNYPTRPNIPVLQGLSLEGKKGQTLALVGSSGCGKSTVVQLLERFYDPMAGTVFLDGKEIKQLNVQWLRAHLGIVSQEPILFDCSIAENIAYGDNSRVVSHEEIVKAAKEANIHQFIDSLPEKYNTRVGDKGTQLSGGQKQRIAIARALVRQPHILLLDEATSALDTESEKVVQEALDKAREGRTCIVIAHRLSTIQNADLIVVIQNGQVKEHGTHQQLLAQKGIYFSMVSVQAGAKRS

The target of data set [2] is human PDE2A1 (Homo sapiens (Human), UniProt O00408). In words: PDE2 IMAP FP inhibition assay, human PDE2A1 (selectivity panel format). The data set is classed as biochemical. In short, it runs like this: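 IMAP fluorescence polarization assay; substrate 50 nM FAM-cAMP with 1000 nM cGMP, enzyme at ~20% conversion, in 10 mM Tris pH 7.2, 10 mM MgCl2, 1 mM DTT, 0.01% Tween-20. 60 min room temperature, stopped with IMAP binding reagent, 1 h, then parallel/perpendicular fluorescence read.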
human PDE2A1, sequence (O00408 other isoform, or with tags, fused parts or gaps): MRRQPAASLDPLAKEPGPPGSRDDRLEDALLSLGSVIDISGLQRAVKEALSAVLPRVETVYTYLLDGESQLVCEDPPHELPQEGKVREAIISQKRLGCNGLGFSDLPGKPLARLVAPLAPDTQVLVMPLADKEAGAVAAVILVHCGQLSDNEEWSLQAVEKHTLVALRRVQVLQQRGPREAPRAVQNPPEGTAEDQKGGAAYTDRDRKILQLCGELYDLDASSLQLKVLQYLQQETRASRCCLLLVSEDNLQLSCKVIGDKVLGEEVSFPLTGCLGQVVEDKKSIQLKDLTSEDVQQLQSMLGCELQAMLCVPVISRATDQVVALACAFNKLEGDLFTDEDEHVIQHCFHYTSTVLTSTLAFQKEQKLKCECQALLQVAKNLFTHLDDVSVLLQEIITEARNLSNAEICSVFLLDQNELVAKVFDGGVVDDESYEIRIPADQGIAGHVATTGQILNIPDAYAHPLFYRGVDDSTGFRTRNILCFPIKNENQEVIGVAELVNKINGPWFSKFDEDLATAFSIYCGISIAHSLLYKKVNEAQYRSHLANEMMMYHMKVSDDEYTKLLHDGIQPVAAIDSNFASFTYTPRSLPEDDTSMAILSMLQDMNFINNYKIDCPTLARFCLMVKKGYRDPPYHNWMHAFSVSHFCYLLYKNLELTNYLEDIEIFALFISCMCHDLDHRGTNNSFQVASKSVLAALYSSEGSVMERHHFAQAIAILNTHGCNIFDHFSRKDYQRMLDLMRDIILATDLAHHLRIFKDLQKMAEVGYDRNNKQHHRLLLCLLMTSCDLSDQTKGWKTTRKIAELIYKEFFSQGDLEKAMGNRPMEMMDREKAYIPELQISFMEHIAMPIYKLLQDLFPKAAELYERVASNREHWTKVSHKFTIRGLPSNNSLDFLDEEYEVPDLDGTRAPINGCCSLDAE

For data set [3], the target named is Rhesus PDE2A3 (Macaca mulatta, UniProt B3VTJ2). In words: PDE2 fluorescence polarization (IMAP FP) inhibition assay, rhesus PDE2A3. Type of data set: biochemical, rhesus macaque.
Rhesus PDE2A3, sequence (B3VTJ2 1-941): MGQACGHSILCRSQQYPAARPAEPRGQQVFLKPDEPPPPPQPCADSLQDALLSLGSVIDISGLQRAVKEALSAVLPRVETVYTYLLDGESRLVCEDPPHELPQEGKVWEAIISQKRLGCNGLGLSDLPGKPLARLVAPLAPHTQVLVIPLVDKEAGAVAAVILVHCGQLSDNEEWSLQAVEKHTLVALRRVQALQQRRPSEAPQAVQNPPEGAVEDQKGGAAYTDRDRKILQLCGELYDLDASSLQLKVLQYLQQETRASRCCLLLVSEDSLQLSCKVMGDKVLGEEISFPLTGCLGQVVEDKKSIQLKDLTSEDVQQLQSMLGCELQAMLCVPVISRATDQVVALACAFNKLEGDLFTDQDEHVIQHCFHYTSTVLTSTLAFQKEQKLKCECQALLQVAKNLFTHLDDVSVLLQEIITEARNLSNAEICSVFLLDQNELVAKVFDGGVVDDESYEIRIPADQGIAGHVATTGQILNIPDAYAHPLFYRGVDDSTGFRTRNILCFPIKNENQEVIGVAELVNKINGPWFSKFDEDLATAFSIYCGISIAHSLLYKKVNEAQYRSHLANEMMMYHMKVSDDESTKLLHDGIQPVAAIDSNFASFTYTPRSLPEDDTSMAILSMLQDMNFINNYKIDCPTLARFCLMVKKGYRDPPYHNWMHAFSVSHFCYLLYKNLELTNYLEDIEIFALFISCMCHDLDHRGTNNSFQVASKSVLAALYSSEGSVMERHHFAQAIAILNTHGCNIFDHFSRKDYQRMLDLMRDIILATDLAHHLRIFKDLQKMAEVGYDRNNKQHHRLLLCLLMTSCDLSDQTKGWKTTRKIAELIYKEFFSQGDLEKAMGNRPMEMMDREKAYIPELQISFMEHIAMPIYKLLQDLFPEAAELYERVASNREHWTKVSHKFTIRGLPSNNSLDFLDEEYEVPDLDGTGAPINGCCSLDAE
Data set [4] concerns the target P-glycoprotein (P-gp) (Homo sapiens (Human), UniProt P08183). Nature of the data set: P-gp transport, experimental BA/AB ratio, human. The note with it: LLC-PK1, 1 μM substrate concentration. Type of data set: in vitro ADME.
From the text: as §1

The mark [5] stands for this setting: Lab B, read-out: Human PDE2 Ki (nM) - Lab B.
[6] abbreviates: Lab B, read-out: Rhesus PDE2 Ki (nM) - Lab B.
[7] abbreviates: Lab A, read-out: Rhesus PDE2 Ki (nM) - Lab A.
Setting [8] is: Lab A, read-out: Human PDE2 Ki (nM) - Lab A.

By efflux ratio is commonly meant a quotient of directional permeabilities that is used to spot active efflux. For orientation: Ki means the equilibrium dissociation constant of an inhibitor or competing ligand from its target.

Where two headings read alike, the source gives them in different places.

P-glycoprotein (P-gp), sequence (P08183 whole entry): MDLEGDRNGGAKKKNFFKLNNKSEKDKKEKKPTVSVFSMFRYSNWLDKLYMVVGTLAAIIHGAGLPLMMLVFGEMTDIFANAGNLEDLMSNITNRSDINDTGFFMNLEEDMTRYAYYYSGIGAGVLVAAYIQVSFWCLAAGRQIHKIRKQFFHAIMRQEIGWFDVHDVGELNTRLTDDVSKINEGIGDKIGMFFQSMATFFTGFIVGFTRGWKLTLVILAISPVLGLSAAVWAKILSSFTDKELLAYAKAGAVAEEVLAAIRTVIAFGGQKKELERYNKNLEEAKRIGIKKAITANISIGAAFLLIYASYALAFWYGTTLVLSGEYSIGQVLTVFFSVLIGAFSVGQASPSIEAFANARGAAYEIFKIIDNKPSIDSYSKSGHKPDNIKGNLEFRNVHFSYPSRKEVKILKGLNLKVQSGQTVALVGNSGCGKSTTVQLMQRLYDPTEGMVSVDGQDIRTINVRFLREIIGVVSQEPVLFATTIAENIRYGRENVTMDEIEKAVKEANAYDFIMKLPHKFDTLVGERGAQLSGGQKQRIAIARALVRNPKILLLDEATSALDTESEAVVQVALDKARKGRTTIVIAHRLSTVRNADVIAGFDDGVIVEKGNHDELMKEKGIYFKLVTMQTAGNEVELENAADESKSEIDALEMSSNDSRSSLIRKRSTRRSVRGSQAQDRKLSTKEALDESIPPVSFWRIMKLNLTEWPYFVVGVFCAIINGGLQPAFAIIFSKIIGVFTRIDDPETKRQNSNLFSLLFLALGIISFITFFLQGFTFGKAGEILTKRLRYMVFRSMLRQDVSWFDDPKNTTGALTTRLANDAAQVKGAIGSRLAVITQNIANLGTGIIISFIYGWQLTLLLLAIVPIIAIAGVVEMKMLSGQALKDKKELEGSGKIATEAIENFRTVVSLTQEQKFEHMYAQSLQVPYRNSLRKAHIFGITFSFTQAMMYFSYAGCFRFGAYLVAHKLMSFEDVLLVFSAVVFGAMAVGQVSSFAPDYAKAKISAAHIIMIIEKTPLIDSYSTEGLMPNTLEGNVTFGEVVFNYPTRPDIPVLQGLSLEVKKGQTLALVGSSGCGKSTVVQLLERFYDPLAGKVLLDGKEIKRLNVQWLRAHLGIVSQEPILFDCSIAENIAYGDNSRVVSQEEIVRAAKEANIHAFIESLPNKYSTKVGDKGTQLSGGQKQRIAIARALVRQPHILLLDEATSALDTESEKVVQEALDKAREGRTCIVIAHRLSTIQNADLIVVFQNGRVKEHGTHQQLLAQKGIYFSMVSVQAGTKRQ

Consider `CN(C)c1nc(C(=O)N[C@@H](c2ccc(OC(F)F)c(F)c2)C2(C)CC2)cc(=O)[nH]1` [Example 55, N-[(R)-[4-(difluoromethoxy)-3-fluorophenyl](1-methylcyclopropyl)methyl]-2-(dimethylamino)-6-oxo-1,6-dihydropyrimidine-4-carboxamide], for which the efflux ratio at 1 μM in data set [1] was found to be 3.4; in data set [4], 0.6. The values for the Ki in data set [2] (setting [5]) and in data set [3] (setting [6]) were 0.98 nM and 1.4 nM, respectively.

Consider `CC[C@@H](NC(=O)c1cc(=O)[nH]c(N(C)C)n1)c1ccc(OC(F)(F)F)c(F)c1` [Example 104, 2-(dimethylamino)-N-{(1R)-1-[3-fluoro-4-(trifluoromethoxy)phenyl]propyl}-6-oxo-1,6-dihydropyrimidine-4-carboxamide], for which the efflux ratio at 1 μM turned out to be 4.2 in data set [1] and 0.6 in data set [4]. In addition, the results for the Ki in data set [2] (setting [5]), in data set [3] (setting [7]) and in data set [3] (setting [6]) were 1.1 nM, 0.56 nM and 1.1 nM, respectively.

On to `CN(C)c1nc(C(=O)N[C@@H](c2ccc(OC(F)F)cc2)C(C)(C)C)cc(=O)[nH]1` [Example 34, N-{(1R)-1-[4-(difluoromethoxy)phenyl]-2,2-dimethylpropyl}-2-(dimethylamino)-6-oxo-1,6-dihydropyrimidine-4-carboxamide], for which the efflux ratio at 1 μM stood at 12.7 in data set [1] and 2 in data set [4]. Also, the Ki in data set [2] (setting [5]) came to 0.39 nM; in data set [3] (setting [6]) it was 0.46 nM.

As to `CN(C)c1nc(C(=O)N[C@@H](c2ccc(C(F)F)c(F)c2)C(C)(C)C)cc(=O)[nH]1` [Example 62, N-{(1R)-1-[4-(difluoromethyl)-3-fluorophenyl]-2,2-dimethylpropyl}-2-(dimethylamino)-6-oxo-1,6-dihydropyrimidine-4-carboxamide], the efflux ratio at 1 μM was 5.2 in data set [1] and 1.2 in data set [4]. Moreover, the results for the inhibitory constant (Ki) in data set [2] (setting [5]) and in data set [3] (setting [6]) were 0.52 nM and 0.55 nM, respectively.

For `CN(C)c1nc(C(=O)NC2(c3ccc(S(F)(F)(F)(F)F)cc3)CC2)cc(=O)[nH]1` [Example 45, 2-(dimethylamino)-6-oxo-N-{1-[4-(pentafluoro-λ^6-sulfanyl)phenyl]cyclopropyl}-1,6-dihydropyrimidine-4-carboxamide], the figures for the efflux ratio at 1 μM in data set [1] and in data set [4] were 10.1 and 0.6, respectively. The Ki in data set [2] (setting [5]) was 1.7 nM; in data set [3] (setting [6]) it was 2.1 nM.

Turning to `CN(C)c1nc(C(=O)N[C@@H](c2ccc(C(F)(F)F)c(F)c2)C2(C)CC2)cc(=O)[nH]1` [Example 42, 2-(dimethylamino)-N-[(R)-[3-fluoro-4-(trifluoromethyl)phenyl](1-methylcyclopropyl)methyl]-6-oxo-1,6-dihydropyrimidine-4-carboxamide], the efflux ratio at 1 μM was 3 in data set [1] and 0.7 in data set [4]. Further, the Ki was found to be 0.44 nM in data set [2] (setting [5]) and 0.45 nM in data set [3] (setting [6]).

For the compound `CC(C)[C@@H](NC(=O)c1cc(=O)[nH]c(N2CCC2)n1)c1ccc(SC(F)(F)F)cc1` [Example 148, 2-azetidin-1-yl-N-[(1R)-2-methyl-1-{4-[(trifluoromethyl)sulfanyl]phenyl}propyl]-6-oxo-1,6-dihydropyrimidine-4-carboxamide], the values for the efflux ratio at 1 μM in data set [1] and in data set [4] were 9.5 and 1.3, respectively. The values for the Ki in data set [2] (setting [8]) and in data set [3] (setting [7]) were 0.2 nM and 0.42 nM, respectively.

As for `C[C@@H](NC(=O)c1cc(=O)[nH]c(N(C)C)n1)c1ccc(OC(F)(F)F)cc1` [Example 87, 2-(dimethylamino)-6-oxo-N-{(1R)-1-[4-(trifluoromethoxy)phenyl]ethyl}-1,6-dihydropyrimidine-4-carboxamide], the figures for the efflux ratio at 1 μM in data set [1] and in data set [4] were 2.2 and 0.5, respectively. The Ki in data set [2] (setting [8]) amounted to 0.74 nM; in data set [3] (setting [7]), 1.1 nM.

Turning to `CN(C)c1nc(C(=O)N[C@@H](c2ccc(S(F)(F)(F)(F)F)cc2)C2CC2)cc(=O)[nH]1` [Example 4, (R)—N-(cyclopropyl(4-(pentafluoro-λ^6-sulfanyl)phenyl)methyl)-2-(dimethylamino)-6-oxo-1,6-dihydropyrimidine-4-carboxamide], the efflux ratio at 1 μM in data set [1] was 3.1; in data set [4], 0.6. The Ki in data set [2] (setting [5]) came out at 1 nM; in data set [3] (setting [6]), 1.2 nM.

For the compound `CNc1nc(C(=O)N[C@H](C)c2ccc(C(F)(F)F)cc2)cc(=O)[nH]1` [Example 135, 2-(methylamino)-6-oxo-N-{(1R)-1-[4-(trifluoromethyl)phenyl]ethyl}-1,6-dihydropyrimidine-4-carboxamide], the efflux ratio at 1 μM in data set [1] was found to be 11.4; in data set [4], 2.7. Also, the Ki in data set [2] (setting [8]) was determined as 27 nM; in data set [3] (setting [7]), 36 nM.

As for `CN(C)c1nc(C(=O)N[C@@H](c2ccc(SC(F)(F)F)cc2)C2CC2)cc(=O)[nH]1` [Example 111, N-[(R)-cyclopropyl{4-[(trifluoromethyl)sulfanyl]phenyl}methyl]-2-(dimethylamino)-6-oxo-1,6-dihydropyrimidine-4-carboxamide], the efflux ratio at 1 μM in data set [1] came out at 2; in data set [4] it was 0.3. Moreover, the Ki in data set [2] (setting [5]) was 0.9 nM; in data set [3] (setting [7]), 0.41 nM; in data set [3] (setting [6]), 0.8 nM.

In the case of `CC(C)[C@@H](NC(=O)c1cc(=O)[nH]c(N2CC[C@H](F)C2)n1)c1ccc(C(F)(F)F)c(F)c1` [Example 168, 2-[(3S)-3-fluoropyrrolidin-1-yl]-N-{(1R)-1-[3-fluoro-4-(trifluoromethyl)phenyl]-2-methylpropyl}-6-oxo-1,6-dihydropyrimidine-4-carboxamide], the figures for the efflux ratio at 1 μM in data set [1] and in data set [4] were 21.2 and 4.1, respectively. The Ki came out at 0.47 nM in data set [2] (setting [5]) and 0.5 nM in data set [3] (setting [6]).

`CNc1nc(C(=O)N[C@@H](c2ccc(SC(F)(F)F)c(F)c2)C(C)C)cc(=O)[nH]1` [Example 155, N-[(1R)-1-{3-fluoro-4-[(trifluoromethyl)sulfanyl]phenyl}-2-methylpropyl]-2-(methylamino)-6-oxo-1,6-dihydropyrimidine-4-carboxamide]: the efflux ratio at 1 μM worked out at 9 in data set [1] and 4.2 in data set [4]. The Ki in data set [2] (setting [8]) was 1.2 nM; in data set [3] (setting [7]), 4.3 nM.

Take `CN(C)c1nc(C(=O)N[C@@H](c2ccc(C3CC3)c(F)c2)C2CC2)cc(=O)[nH]1` [Example 56, N-[(R)-cyclopropyl(4-cyclopropyl-3-fluorophenyl)methyl]-2-(dimethylamino)-6-oxo-1,6-dihydropyrimidine-4-carboxamide]: the efflux ratio at 1 μM in data set [1] was found to be 1.7; in data set [4], 0.3. Also, the Ki in data set [2] (setting [5]) worked out at 0.51 nM; in data set [3] (setting [6]) it was 0.71 nM.

Regarding `CNc1nc(C(=O)N[C@H](C)c2ccc(SC(F)(F)F)cc2)cc(=O)[nH]1` [Example 144, 2-(methylamino)-6-oxo-N-[(1R)-1-{4-[(trifluoromethyl)sulfanyl]phenyl}ethyl]-1,6-dihydro-pyrimidine-4-carboxamide], the efflux ratio at 1 μM in data set [1] stood at 14.2; in data set [4], 3.3. The Ki in data set [2] (setting [8]) came to 3.4 nM; in data set [3] (setting [7]), 5.7 nM.

As to `CN(C)c1nc(C(=O)N[C@@H](c2ccc(OC(F)F)c(F)c2)C(C)(C)C)cc(=O)[nH]1` [Example 54, N-{(1R)-1-[4-(difluoromethoxy)-3-fluorophenyl]-2,2-dimethylpropyl}-2-(dimethylamino)-6-oxo-1,6-dihydropyrimidine-4-carboxamide], the efflux ratio at 1 μM in data set [1] came to 4.8; in data set [4], 1.4. Also, the Ki was 0.38 nM in data set [2] (setting [5]) and 0.32 nM in data set [3] (setting [6]).
